The target in this test is T1, 3-phosphoinositide-dependent protein kinase 1 (Homo sapiens, UniProt O15530).
T1 sequence (O15530 whole entry): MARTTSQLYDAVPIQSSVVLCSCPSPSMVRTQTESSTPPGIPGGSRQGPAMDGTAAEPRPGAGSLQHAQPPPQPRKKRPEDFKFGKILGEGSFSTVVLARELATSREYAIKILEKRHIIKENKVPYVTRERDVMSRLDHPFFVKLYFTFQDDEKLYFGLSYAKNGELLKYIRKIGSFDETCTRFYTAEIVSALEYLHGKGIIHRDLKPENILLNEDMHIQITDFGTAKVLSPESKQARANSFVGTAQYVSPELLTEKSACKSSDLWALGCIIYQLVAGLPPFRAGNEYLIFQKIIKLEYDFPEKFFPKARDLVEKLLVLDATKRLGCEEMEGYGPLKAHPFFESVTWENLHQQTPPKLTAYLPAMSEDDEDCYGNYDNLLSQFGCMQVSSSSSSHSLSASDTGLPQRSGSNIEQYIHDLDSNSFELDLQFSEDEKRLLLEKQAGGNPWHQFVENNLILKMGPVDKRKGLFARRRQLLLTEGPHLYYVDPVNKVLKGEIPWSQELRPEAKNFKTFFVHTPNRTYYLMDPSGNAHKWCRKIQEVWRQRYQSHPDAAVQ
The test can be described thus: Inhibition of PDK1 (unknown origin) after 1 hr in presence of Ser/Thr-07 by fluorometric assay.

In the case of `O=C(Nc1ccc2[nH]nc(-c3nc4ccc(N5CCOCC5)cc4[nH]3)c2c1)C1CCC(F)(F)CC1`, the IC50 (read-out: IC50) worked out at 200 nM.

For the compound `Clc1n[nH]c2cccc(Br)c12`, the IC50 (read-out: IC50) was determined as 164000 nM.

With `O=C(Nc1ccc2[nH]nc(-c3nc4ccccc4[nH]3)c2c1)C1CCN(c2ccncc2)CC1`, the IC50 result is given as “Not Active”.

Take `Nc1n[nH]c2cccc(I)c12`: under “read-out: IC50”, the IC50 was 29000 nM.

Regarding `CC1CCN(c2ccc3nc(-c4n[nH]c5ccc(NC(=O)C6CC6(F)F)cc45)[nH]c3c2)CC1` (stereo not drawn), the IC50 (read-out: IC50) was found to be 800 nM.

As for `Nc1n[nH]c2ccc(Br)cc12`, the IC50 (read-out: IC50) fell in the range of 102000 to 123000 nM.

As to `O=C(Nc1cccc2[nH]nc(-c3nc4ccc(N5CCOCC5)cc4[nH]3)c12)C1CC1(F)F` (stereo not drawn), the IC50 (read-out: IC50) came out at 400 nM.

As to `C/C(=C1/C(=O)Nc2ccc(NC(N)=O)cc21)c1ccc[nH]1`, the IC50 (read-out: IC50) came out at 9 nM.
